Reference: PMC8605023 (Nature Communications, 2021)
Ends that are not written are not given here. Peptide text beside a SMILES is read from it. * marks the point of attachment. FITC = O=C1OC2(c3ccc(O)cc3Oc3cc(O)ccc32)c2ccc(NC(=S)*)cc21

Assays:
AP2M1 [1] = target: T1, AP2M1 (Homo sapiens, UniProt Q96CW1); assay: biochemical; assay type: binding
T1 construct: His-GST (cleaved yes); made in house; host or cells: E. coli BL21-Gold(DE3)
T1 sequence (Q96CW1 160-435 limits assumed): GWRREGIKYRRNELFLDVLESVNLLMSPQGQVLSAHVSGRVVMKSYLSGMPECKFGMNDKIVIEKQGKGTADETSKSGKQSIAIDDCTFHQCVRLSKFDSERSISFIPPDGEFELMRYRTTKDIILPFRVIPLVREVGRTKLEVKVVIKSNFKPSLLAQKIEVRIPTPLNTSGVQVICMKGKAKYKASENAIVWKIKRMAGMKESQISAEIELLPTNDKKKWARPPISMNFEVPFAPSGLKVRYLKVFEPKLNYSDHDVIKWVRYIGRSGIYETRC

AP2M1 [2] = target: T1, AP2M1; assay: FP saturation (direct) binding of FITC-labeled probe peptide, AP2M1
Description: (§1) Proteins used for FP affinity measurements were expressed and purified in larger-scale bacterical cultures (at least 8 × 500 mL 2YT). His-GST-tagged G3BP1 and G3BP2 were used directly for affinity measurements after dialysis.
(§2) FP experiments were carried out using a SpectraMax iD5 multimode microplate reader (Molecular Devices) using a black half area 96-well plate (Corning, USA #3993) with a total volume of 50 μL. The settings used were 485 nm for excitation and 535 nm for emission.
(§3) Peptides were from GeneCust (France) with a purity of over 95%. FITC-labeled peptides were dissolved in dimethyl sulfoxide (DMSO). Unlabelled peptides were dissolved in phosphate buffer (50 mM phosphate buffer pH 7.5 and 1–2 mM reducing agent DTT or TCEP). All measurements were performed at least in triplicates. For saturation binding experiment, proteins were serially diluted in the plate with phosphate buffer in a volume 25 μL, and then supplemented with a master mix of 10 nM FITC-labeled peptide in phosphate buffer. […] Twenty-five mitroliter of this displacement master mix was added to unlabeled peptides, which were serially diluted in the plate in 25 μL phosphate buffer.
(§4) The data were analysed with GraphPad Prism version 9.0.0 for MacOS (GraphPad Software, San Diego, California USA, www.graphpad.com). […]

[3] = target: FERM domain of Ezrin (EZR) (Homo sapiens, UniProt P15311); assay: biochemical; assay type: binding
FERM domain of Ezrin (EZR), sequence (P15311 2-296 limits assumed): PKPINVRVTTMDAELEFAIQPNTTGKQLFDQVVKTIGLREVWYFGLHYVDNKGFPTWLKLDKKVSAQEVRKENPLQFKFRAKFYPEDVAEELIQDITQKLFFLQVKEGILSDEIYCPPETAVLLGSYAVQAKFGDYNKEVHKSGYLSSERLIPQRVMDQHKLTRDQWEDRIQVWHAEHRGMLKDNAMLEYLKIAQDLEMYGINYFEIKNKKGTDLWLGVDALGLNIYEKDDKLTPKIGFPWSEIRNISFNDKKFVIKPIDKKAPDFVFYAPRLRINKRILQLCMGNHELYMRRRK

MAP1LC3C [4] = target: T2, MAP1LC3C (Homo sapiens, UniProt Q9BXW4); assay: biochemical; assay type: binding
T2 construct: His-GST (cleaved yes); made in house; host or cells: E. coli BL21-Gold(DE3)
T2 sequence (Q9BXW4 1-126 limits assumed): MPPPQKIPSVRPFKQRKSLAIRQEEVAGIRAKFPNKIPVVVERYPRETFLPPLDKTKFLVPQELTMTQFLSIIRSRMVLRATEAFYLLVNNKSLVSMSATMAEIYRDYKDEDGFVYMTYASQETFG

USP7 [5] = target: T3, USP7 (Homo sapiens, UniProt Q93009); assay: biochemical; assay type: binding
T3 construct: His-GST (cleaved yes); made in house; host or cells: E. coli BL21-Gold(DE3)
T3 sequence (Q93009 63-205 limits assumed): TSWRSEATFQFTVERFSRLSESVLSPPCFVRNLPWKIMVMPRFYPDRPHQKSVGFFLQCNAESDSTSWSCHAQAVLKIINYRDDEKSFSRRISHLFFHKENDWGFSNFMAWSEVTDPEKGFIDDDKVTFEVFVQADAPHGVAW

MAP1LC3C [6] = target: T2, MAP1LC3C; assay: FP saturation (direct) binding of FITC-labeled probe peptide, MAP1LC3C
Description: as §1, §2, §3, §4

NTF2 domain of G3BP1 = target: T4, NTF2 domain of G3BP1 (Homo sapiens, UniProt Q13283); assay: biochemical; assay type: binding
T4 construct: made in house; host or cells: E. coli BL21-Gold(DE3)
T4 sequence (Q13283 11-133 limits assumed): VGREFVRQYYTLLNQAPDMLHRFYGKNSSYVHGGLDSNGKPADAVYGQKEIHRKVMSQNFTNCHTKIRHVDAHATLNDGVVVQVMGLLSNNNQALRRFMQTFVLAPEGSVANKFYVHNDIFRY

NTF2 domain of G3BP2 = target: T5, NTF2 domain of G3BP2 (Homo sapiens, UniProt Q9UN86); assay: biochemical; assay type: binding
T5 construct: made in house; host or cells: E. coli BL21-Gold(DE3)
T5 sequence (Q9UN86 11-133 limits assumed): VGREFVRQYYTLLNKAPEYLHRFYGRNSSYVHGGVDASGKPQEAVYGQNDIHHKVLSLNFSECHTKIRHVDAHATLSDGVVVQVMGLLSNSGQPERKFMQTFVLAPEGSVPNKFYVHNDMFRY

USP7 [7] = target: T3, USP7; assay: FP saturation (direct) binding of FITC-labeled probe peptide, USP7; conditions: Kd direct binding of 10 nM FITC probe, saturation with protein
Description: as §1, §2, §3, §4

## CC[C@H](C)[C@H](NC(=O)[C@H](CC(=O)O)NC(=O)[C@H](CO)NC(=O)[C@@H](NC(=O)[C@@H](NC(=O)CNC(C)=O)C(C)C)C(C)C)C(=O)N[C@@H](CC(=O)O)C(=O)N[C@@H](Cc1ccc(O)cc1)C(=O)N[C@H](C(=O)N1CCC[C@H]1C(=O)N[C@@H](CC(C)C)C(=O)N[C@@H](CCCCN)C(=O)N[C@@H](CO)C(=O)N[C@@H](C)C(=O)N[C@H](C(N)=O)[C@@H](C)O)C(C)C
AP2M1 [1]
  Kd: 1.6 ± 0.2 µM

## CC(C)C[C@H](NC(=O)[C@H](CCCNC(=N)N)NC(=O)[C@H](CCC(N)=O)NC(=O)[C@H](Cc1ccc(O)cc1)NC(=O)[C@H](CCC(=O)O)NC(=O)[C@@H](NC(=O)[C@H](CC(=O)O)NC(=O)[C@H](Cc1ccccc1)NC(=S)Nc1ccc2c(c1)C(=O)OC21c2ccc(O)cc2Oc2cc(O)ccc21)[C@@H](C)O)C(=O)N[C@@H](CCC(=O)O)C(=O)N[C@@H](C)C(=O)N[C@@H](CO)C(=O)O [ATG9A 4-14 Human] (HELM PEPTIDE1{[O=C1OC2(c3ccc(O)cc3Oc3cc(O)ccc32)c2ccc(NC(=S)[*:2])cc21].F.D.T.E.Y.Q.R.L.E.A.S}$$$$V2.0)
AP2M1 [2]
  Kd: 1.1 ± 0.03 µM

## CC[C@H](C)[C@H](NC(=O)[C@H](CC(C)C)NC(=O)[C@@H](NC(=O)CNC(=O)[C@@H](NC(=O)[C@H](CCC(=O)O)NC(=O)[C@H](CCC(=O)O)NC(=O)[C@H](CO)NC(=O)[C@@H](NC(=O)[C@H](Cc1ccccc1)NC(=O)[C@H](CO)NC(=O)[C@H](Cc1ccc(O)cc1)NC(=O)[C@@H](N)CCSC)C(C)C)[C@@H](C)O)[C@@H](C)O)C(=O)N[C@H](C(=O)N[C@@H](CC(N)=O)C(=O)N[C@@H](CO)C(=O)O)C(C)C [E 1-16 Sars-CoV2/Sars-CoV] (H-MYSFVSEETGTLIVNS-OH)
[3]
  Kd: 57.9 ± 0.4 µM

## CC[C@H](C)[C@H](NC(=O)[C@H](Cc1c[nH]cn1)NC(=O)[C@H](CCCCN)NC(=O)[C@H](CC(N)=O)NC(=O)[C@H](CC(C)C)NC(C)=O)C(=O)N[C@@H](CC(=O)O)C(=O)N[C@@H](C)C(=O)N[C@@H](Cc1ccc(O)cc1)C(=O)N[C@@H](CCCCN)C(=O)N[C@H](C(=O)N[C@@H](Cc1ccccc1)C(=O)N1CCC[C@H]1C(=O)N1CCC[C@H]1C(=O)N[C@H](C(=O)N[C@@H](CCC(=O)O)C(N)=O)[C@@H](C)O)[C@@H](C)O [N 353-367 Sars-CoV2/Sars-CoV]
AP2M1 [1]
  IC50: 1530 µM
  Ki: 530 µM

## CC(C)C[C@H](NC(=O)[C@@H](NC(=O)[C@H](CCC(=O)O)NC(=O)[C@H](Cc1ccccc1)NC(=O)[C@H](CO)NC(=O)[C@H](CC(N)=O)NC(=O)[C@H](CO)NC(=O)[C@@H](NC(=O)[C@H](CC(=O)O)NC(=O)[C@@H](N)C(C)C)[C@@H](C)O)C(C)C)C(=O)N[C@@H](C)C(=O)N[C@H](C(=O)N[C@@H](CCC(=O)O)C(=O)N[C@@H](CC(=O)O)C(=O)N[C@H](C(=O)N[C@@H](CCC(N)=O)C(=O)N[C@@H](Cc1ccc(O)cc1)C(=O)O)[C@@H](C)O)C(C)C [NSP3 1996-2011 Sars-CoV]
MAP1LC3C [4]
  IC50: 200 µM
  Kd: 28 ± 1 µM
  Ki: 28 µM
USP7 [5]
  IC50: 210 µM
  Kd: 29 ± 2 µM
  Ki: 29 µM

## CC(C)C[C@H](NC(=O)[C@@H](NC(=O)[C@H](CC(=O)O)NC(=O)[C@H](Cc1ccccc1)NC(=O)[C@H](CO)NC(=O)[C@H](CC(N)=O)NC(=O)[C@H](CO)NC(=O)[C@@H](NC(=O)[C@H](CCC(=O)O)NC(=O)[C@@H](N)C(C)C)[C@@H](C)O)C(C)C)C(=O)N[C@@H](CCCCN)C(=O)N[C@@H](CO)C(=O)N[C@@H](CCC(=O)O)C(=O)N[C@@H](CC(=O)O)C(=O)N[C@@H](C)C(=O)N[C@@H](CCC(N)=O)C(=O)N[C@@H](Cc1ccc(O)cc1)C(=O)O [NSP3 2019-2034 Sars-CoV2]
MAP1LC3C [4]
  IC50: 1530 µM
  Kd: 210 ± 18 µM
  Ki: 210 µM
USP7 [5]
  IC50: 270 µM
  Kd: 37 ± 0.2 µM
  Ki: 37 µM
[3]
  Kd: 19.8 ± 0.4 µM

## CC[C@H](C)[C@H](NC(=O)[C@H](CCSC)NC(=O)[C@H](CO)NC(C)=O)C(=O)N[C@@H](CCC(=O)O)C(=O)N[C@@H](CC(=O)O)C(=O)N[C@H](C(=O)N[C@@H](CC(=O)O)C(=O)N[C@@H](Cc1ccc(O)cc1)C(=O)N[C@H](C(=O)N1CCC[C@H]1C(=O)N[C@@H](CC(C)C)C(=O)N[C@@H](CCCCN)C(=O)N[C@@H](CO)C(=O)N[C@@H](C)C(=O)N[C@H](C(N)=O)C(C)C)C(C)C)[C@@H](C)CC [NSP14 6498-6512 Mers]
AP2M1 [1]
  Kd: 3 ± 0.1 µM
  Ki: 3 µM

## CC(C)C[C@H](NC(=O)[C@H](Cc1c[nH]cn1)NC(=O)[C@@H](NC(=O)[C@H](Cc1c[nH]c2ccccc12)NC(=O)[C@H](CC(=O)O)NC(=O)[C@H](CC(=O)O)NC(=O)[C@H](CC(=O)O)NC(=S)Nc1ccc2c(c1)C(=O)OC21c2ccc(O)cc2Oc2cc(O)ccc21)[C@@H](C)O)C(=O)N[C@@H](CO)C(=O)N[C@@H](CO)C(=O)N[C@@H](CCCCN)C(N)=O [SQSTM1 335-344 Human]
MAP1LC3C [6]
  Kd: 1.1 ± 0.03 µM

## CC(=O)N[C@@H](CC(N)=O)C(=O)N[C@@H](CC(C)C)C(=O)N[C@@H](CCC(N)=O)C(=O)N[C@@H](Cc1ccccc1)C(=O)NCC(=O)N[C@@H](C)C(=O)N[C@@H](CC(C)C)C(=O)N[C@@H](CCC(N)=O)C(=O)N[C@@H](Cc1ccccc1)C(=O)NCC(=O)N[C@@H](CO)C(=O)N[C@@H](CCC(=O)O)C(=O)N1CCC[C@H]1C(=O)N[C@H](C(=O)N[C@@H](Cc1ccc(O)cc1)C(=O)O)C(C)C [UBAP2L 515-528 Human] (Ac-NLQFGALQFGSEPVY-OH)
NTF2 domain of G3BP1
  Ki: 34 µM
NTF2 domain of G3BP2
  Kd: 34 µM

## {FITC}-DYSQPSTSSSIIY [MDM2 393-414 Human]
USP7 [7]
  Ki displacement/Kd direct binding: 0.49 µM
